Data taken from patent US8688416B2, “Methods and systems for improved pharmaceutical intervention in coagulation control” (priority 2008, dated 2014).
Several values for one entry are separate records, joined by “and”; a condition that tells them apart may be missing. Equal values may be shown once.

How the values were obtained:
INR [1] = assay: Fit of dose-response equation (4)/(5) for Vitamin K intake to INR of anti-coagulated patients (published data); type: in vivo
Text: More specifically, the reciprocal of INR will be dose-responsive to Vitamin K in the normal manner, as discussed above, so that Logit (1/INR) will be linear in log (K), where K is the effective total intake of Vitamin K in μg/day. Data on the total intake of Vitamin K are very rarely available in the clinic, but it is practicable to investigate departures from the usual amount when occasion arises, such as when a supplement of Vitamin K is prescribed. Therefore log (K) is expressed as the sum of two terms: log (K)=log (K0)+log (K/K0), where K0 is the average daily intake of Vitamin K.
The dose-response curve described here includes the effect of exogenous Vitamin K by considering the parameter a in equation (1) to be the sum of two terms, a=a′+c log (K0), where a′ is another constant and c is a patient-specific parameter, and by adding a term for the effect of departures from K0. Thus, it follows that Log (INR−1)=bw−a−c log (K/K0) (4) […]
The parameters of this dose-response curve for Vitamin K are derived primarily from published data based on use of synthetic Vitamin K tablets. In such published studies, the average daily intake of Vitamin K was measured in the diet of the subjects at 55 μg. […] The dose was increased each Monday before INR was measured; thus, the INR for Tuesday was one day after increase, etc.

INR [2] = system: INR
Text: To simplify, a=y log (PCAo)−x, which expresses the fixed contribution of the patient's own clotting factor system; this will result in equation (1) Log (INR−1)=bw−a (1)
Consequently, the patient-specific parameters are now a and b. […] In the absence of further information, a is assumed to be a constant characteristic of the patient, but as will be shown below, also includes the effects of the intake of Vitamin K on the patient's INR, whose effects can be represented by adding another term (see below). It should be pointed out that Equation (1) is a proposition, not a definition, because it specifies what value of the INR will be observed, given values for a, b and w. Furthermore, it should be appreciated that the value predicted for a particular patient thus depends only on w regardless of when in the treatment sequence it occurred. […] These two parameters relating INR to effective dose w can be seen as the scale factor for the dose a and the steepness of the dose response b.
In the present invention, an empirical approximation is used to predict the time course of the patient's response to a change in a dose. […] In the case of a patient taking the same dose for an extended time, the “effective dose” equals that regular dose after the stabilization time. The “effective dose” only needs to be calculated when there is a change in dosage and during the stabilization period.
The “effective dose” is calculated by convolving the actual dose with a function of time since the dose was taken. This function represents the effect of a single dose on the INR through time. […] It is assumed that the weighting for a dose taken just once is a triangular function with a slope of k from the time the dose is taken to the time of its maximum effect on INR, followed by a tailing off with a slope of −k. The resulting function for a maintained daily dose is an S-shaped growth function, consisting of two quarter-parabolae, depicted in FIG. 5. […] Here, the half-maximal delay is one unit of time at which the dose has half its maximum effect. When the patient stops taking the drug, the decay is reversed.
The “optimum” dose is the dose expected to yield an INR at the mid-point of the therapeutic range. The effective doses were calculated using a half-maximal delay of 6.4, 6.4 and 9.0 days respectively.
The parameter tmax½ used for this convolution is the time to attain the half-maximal effect for a maintained dose, which is also the time to attain the maximum effect of a single dose.

[3] = patients studied, all taking warfarin, w = daily dosage in milligrams, natural log

Vitamin K
average value of patient-specific parameter c in equation (5) (INR [1]; derived from the literature data, K in μg/day, natural log): 0.43

CC(=O)CC(c1ccccc1)c1c(O)c2ccccc2oc1=O (centres unmarked) [warfarin]
time until the INR has stabilized on a constant dose (INR [2]; constant dose): 13 days and 14 days
mean value of a in equation (1), Log (INR-1)=bw-a (INR [2]; [3]): about 2.8
mean value of b in equation (1) (sensitivity, slope of the dose-response curve) (INR [2]; [3]): about 0.54

CC1=C(C/C=C(\C)CCC[C@H](C)CCC[C@H](C)CCCC(C)C)C(=O)c2ccccc2C1=O [Vitamin K1]
half-time to stabilization (INR [1]; effect on INR of effective total daily intake): about 1.6 days
